Legend:
Assay in all cases: In vitro kinase activity (Kinase-Glo luminescence)
Format in all cases: biochemical
[1] = biological target: T1, TIE1 (Homo sapiens, UniProt P35590)
T1 construct: Human recombinant full-length kinases were incubated in kinase buffer
Procedure: (§1) Human recombinant full-length kinases were incubated in kinase buffer containing ATP and substrate (Poly Glu:Tyr) for 4 hours at room temperature with or without the presence of the compounds listed in Table 1 at various concentrations. Remaining ATP in solution was then quantified using the Kinase-Glo-Iuminescence™ kit (Promega).

[2] = biological target: T2, INSR (Homo sapiens, UniProt P06213)
T2 construct: Human recombinant full-length kinases were incubated in kinase buffer
Procedure: as §1

[3] = biological target: T3, SGK3 (Homo sapiens, UniProt Q96BR1)
T3 construct: Human recombinant full-length kinases were incubated in kinase buffer
Procedure: as §1

[4] = biological target: T4, Aurora B (Homo sapiens, UniProt Q96GD4)
T4 construct: Human recombinant full-length kinases were incubated in kinase buffer
Procedure: as §1

[5] = biological target: T5, MET (Homo sapiens, UniProt P08581)
T5 construct: Human recombinant full-length kinases were incubated in kinase buffer
T5 sequence (P08581 25-1390): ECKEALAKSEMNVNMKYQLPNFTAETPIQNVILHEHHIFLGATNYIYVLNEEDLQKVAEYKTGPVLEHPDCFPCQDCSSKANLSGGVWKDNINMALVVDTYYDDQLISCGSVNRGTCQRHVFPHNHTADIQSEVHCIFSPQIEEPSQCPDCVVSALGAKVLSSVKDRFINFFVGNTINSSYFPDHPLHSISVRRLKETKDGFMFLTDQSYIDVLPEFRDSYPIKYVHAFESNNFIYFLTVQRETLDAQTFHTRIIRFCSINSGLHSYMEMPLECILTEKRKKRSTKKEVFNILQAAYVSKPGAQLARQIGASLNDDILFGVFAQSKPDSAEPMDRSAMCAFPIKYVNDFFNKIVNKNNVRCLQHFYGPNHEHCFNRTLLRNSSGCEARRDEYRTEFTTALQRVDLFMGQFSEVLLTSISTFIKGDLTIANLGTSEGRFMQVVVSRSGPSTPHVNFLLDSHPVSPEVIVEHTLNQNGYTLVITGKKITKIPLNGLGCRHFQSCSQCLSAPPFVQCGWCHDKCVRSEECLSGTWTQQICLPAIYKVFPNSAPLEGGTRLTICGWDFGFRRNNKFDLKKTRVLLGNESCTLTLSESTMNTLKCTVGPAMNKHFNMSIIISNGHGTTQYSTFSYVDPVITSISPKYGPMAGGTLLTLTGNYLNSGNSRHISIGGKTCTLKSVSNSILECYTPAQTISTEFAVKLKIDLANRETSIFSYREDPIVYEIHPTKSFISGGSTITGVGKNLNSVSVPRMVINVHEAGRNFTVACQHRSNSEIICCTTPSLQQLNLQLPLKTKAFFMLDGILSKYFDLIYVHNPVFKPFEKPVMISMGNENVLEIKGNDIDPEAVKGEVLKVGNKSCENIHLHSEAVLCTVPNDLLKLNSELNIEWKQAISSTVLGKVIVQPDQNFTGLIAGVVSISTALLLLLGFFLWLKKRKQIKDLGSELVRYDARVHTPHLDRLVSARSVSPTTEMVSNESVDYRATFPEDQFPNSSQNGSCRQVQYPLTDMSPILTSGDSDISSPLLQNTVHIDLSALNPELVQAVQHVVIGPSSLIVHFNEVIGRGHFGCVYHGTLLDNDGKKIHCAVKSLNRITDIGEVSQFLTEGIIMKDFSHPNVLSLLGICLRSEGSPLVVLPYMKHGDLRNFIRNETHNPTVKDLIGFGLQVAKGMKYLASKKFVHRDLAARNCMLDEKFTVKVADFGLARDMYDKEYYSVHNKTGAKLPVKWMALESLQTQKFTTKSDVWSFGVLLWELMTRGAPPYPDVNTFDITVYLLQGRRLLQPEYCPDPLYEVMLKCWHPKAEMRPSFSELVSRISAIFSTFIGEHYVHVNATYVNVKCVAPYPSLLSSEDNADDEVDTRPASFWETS
Procedure: as §1

[6] = biological target: T6, DDR1 (Homo sapiens, UniProt Q08345)
T6 construct: Human recombinant full-length kinases were incubated in kinase buffer
Procedure: as §1

[7] = biological target: T7, SRC (Homo sapiens, UniProt P12931)
T7 construct: Human recombinant full-length kinases were incubated in kinase buffer
Procedure: as §1

[8] = biological target: T8, FLT3 (Homo sapiens, UniProt P36888)
T8 construct: Human recombinant full-length kinases were incubated in kinase buffer
Procedure: as §1

[9] = biological target: T9, PKC-α (Homo sapiens, UniProt P17252); conditions: Table 2
T9 construct: Human recombinant full-length kinases were incubated in kinase buffer
Procedure: as §1

[10] = biological target: T10, YES1 (Homo sapiens, UniProt P07947)
T10 construct: Human recombinant full-length kinases were incubated in kinase buffer
Procedure: as §1

[11] = biological target: T11, EPHA1 (Homo sapiens, UniProt P21709)
T11 construct: Human recombinant full-length kinases were incubated in kinase buffer
T11 sequence (P21709 26-976): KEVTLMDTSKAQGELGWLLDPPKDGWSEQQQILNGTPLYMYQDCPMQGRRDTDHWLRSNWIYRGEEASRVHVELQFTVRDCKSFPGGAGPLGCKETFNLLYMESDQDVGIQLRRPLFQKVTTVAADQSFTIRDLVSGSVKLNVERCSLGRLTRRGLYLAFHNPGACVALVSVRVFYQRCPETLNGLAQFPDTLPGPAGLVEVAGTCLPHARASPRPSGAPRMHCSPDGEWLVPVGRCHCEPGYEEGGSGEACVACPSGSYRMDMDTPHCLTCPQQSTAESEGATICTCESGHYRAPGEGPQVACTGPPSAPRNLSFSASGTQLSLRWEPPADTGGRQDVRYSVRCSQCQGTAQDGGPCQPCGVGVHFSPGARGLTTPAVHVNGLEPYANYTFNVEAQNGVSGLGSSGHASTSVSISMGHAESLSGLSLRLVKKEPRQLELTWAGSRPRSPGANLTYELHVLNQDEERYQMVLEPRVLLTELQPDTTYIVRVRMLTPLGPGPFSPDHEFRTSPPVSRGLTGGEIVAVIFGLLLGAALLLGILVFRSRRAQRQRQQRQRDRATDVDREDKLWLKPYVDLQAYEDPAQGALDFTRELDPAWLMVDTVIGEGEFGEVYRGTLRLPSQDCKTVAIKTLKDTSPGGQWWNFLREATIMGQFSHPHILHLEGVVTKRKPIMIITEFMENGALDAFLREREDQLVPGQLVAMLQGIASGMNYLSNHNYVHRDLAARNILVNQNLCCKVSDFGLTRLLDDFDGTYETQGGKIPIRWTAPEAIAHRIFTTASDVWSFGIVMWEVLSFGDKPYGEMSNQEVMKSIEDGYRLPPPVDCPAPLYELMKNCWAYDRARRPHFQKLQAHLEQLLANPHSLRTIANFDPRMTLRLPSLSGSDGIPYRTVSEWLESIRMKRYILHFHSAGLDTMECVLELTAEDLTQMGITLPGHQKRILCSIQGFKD
Procedure: as §1

[12] = biological target: T12, VEGFR2 (Homo sapiens, UniProt P35968)
T12 construct: Human recombinant full-length kinases were incubated in kinase buffer
Procedure: as §1

[13] = biological target: T13, CDK1/Cyclin B (Homo sapiens, UniProt P06493)
T13 construct: Human recombinant full-length kinases were incubated in kinase buffer
Procedure: as §1

[14] = biological target: T14, TRKB (Homo sapiens, UniProt Q16620)
T14 construct: Human recombinant full-length kinases were incubated in kinase buffer
Procedure: as §1

[15] = biological target: T15, Aurora A (Homo sapiens, UniProt O14965)
T15 construct: Human recombinant full-length kinases were incubated in kinase buffer
Procedure: as §1

[16] = biological target: T16, PAK1 (Homo sapiens, UniProt Q13153)
T16 construct: Human recombinant full-length kinases were incubated in kinase buffer
Procedure: as §1

[17] = biological target: T17, SYK (Homo sapiens, UniProt P43405)
T17 construct: Human recombinant full-length kinases were incubated in kinase buffer
Procedure: as §1

[18] = biological target: T18, IGF1R (Homo sapiens, UniProt P08069)
T18 construct: Human recombinant full-length kinases were incubated in kinase buffer
Procedure: as §1

[19] = biological target: T19, LYN (Homo sapiens, UniProt P07948)
T19 construct: Human recombinant full-length kinases were incubated in kinase buffer
T19 sequence (P07948 whole entry): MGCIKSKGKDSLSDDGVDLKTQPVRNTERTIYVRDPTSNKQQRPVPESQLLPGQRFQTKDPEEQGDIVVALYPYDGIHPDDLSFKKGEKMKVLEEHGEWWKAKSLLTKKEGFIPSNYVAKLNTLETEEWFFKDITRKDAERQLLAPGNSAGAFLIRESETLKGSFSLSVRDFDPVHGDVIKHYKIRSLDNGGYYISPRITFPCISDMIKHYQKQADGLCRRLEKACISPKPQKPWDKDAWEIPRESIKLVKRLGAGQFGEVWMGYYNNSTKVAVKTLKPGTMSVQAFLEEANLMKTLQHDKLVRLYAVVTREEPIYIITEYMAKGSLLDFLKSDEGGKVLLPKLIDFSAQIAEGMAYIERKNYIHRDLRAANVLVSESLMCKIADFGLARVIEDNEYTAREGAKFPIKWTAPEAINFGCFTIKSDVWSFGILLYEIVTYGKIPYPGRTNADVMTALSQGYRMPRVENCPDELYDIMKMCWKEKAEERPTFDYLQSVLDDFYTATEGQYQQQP
Procedure: as §1

[20] = biological target: T20, P38-γ (Homo sapiens, UniProt P53778)
T20 construct: Human recombinant full-length kinases were incubated in kinase buffer
Procedure: as §1

[21] = biological target: T21, PDGFR-β (Homo sapiens, UniProt P09619)
T21 construct: Human recombinant full-length kinases were incubated in kinase buffer
T21 sequence (P09619 33-1106): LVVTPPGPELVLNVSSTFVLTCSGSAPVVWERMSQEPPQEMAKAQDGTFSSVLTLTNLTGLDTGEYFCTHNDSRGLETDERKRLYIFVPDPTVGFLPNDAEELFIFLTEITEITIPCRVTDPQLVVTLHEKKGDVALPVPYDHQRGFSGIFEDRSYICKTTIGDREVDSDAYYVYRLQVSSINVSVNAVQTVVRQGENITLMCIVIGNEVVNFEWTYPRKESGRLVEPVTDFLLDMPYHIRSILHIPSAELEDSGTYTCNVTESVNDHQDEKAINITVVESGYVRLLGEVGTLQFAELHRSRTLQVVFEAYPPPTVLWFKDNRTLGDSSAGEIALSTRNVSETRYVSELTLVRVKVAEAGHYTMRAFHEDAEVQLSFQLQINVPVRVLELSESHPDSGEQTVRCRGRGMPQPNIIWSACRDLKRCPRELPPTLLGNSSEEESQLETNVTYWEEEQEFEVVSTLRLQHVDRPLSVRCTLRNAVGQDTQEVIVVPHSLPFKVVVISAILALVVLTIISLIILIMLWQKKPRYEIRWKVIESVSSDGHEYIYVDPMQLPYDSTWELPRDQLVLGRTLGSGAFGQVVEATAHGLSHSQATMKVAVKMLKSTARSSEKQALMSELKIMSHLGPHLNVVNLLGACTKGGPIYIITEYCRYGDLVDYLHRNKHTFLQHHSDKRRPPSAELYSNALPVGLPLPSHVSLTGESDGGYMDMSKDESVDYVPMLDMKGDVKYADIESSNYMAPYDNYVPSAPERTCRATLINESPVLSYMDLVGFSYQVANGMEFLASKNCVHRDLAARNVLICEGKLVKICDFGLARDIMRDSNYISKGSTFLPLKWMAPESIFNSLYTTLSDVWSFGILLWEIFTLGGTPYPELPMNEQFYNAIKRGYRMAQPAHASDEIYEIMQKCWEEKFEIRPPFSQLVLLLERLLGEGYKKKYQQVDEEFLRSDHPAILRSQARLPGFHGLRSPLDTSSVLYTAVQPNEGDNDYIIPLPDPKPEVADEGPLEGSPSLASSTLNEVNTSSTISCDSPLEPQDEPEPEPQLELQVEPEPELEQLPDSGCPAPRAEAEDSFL
Procedure: as §1

[22] = biological target: T22, FYN (Homo sapiens, UniProt P06241)
T22 construct: Human recombinant full-length kinases were incubated in kinase buffer
T22 sequence (P06241 whole entry): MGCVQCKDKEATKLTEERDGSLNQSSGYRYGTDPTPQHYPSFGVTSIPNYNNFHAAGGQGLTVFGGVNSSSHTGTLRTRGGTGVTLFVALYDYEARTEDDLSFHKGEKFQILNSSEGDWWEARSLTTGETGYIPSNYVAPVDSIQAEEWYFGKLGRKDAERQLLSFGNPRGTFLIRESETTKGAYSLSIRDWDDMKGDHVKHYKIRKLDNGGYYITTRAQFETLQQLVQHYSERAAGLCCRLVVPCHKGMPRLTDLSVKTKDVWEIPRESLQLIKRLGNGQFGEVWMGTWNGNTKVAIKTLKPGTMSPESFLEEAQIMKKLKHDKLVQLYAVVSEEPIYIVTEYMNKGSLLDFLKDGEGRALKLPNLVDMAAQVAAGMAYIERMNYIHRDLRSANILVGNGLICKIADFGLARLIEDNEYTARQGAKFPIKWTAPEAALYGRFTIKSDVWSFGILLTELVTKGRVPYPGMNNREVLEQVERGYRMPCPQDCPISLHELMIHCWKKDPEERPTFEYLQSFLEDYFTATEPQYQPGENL
Procedure: as §1

[23] = biological target: T23, EGFR (Homo sapiens, UniProt P00533)
T23 construct: Human recombinant full-length kinases were incubated in kinase buffer
Procedure: as §1

[24] = biological target: T24, IKK-ε (Homo sapiens, UniProt Q14164)
T24 construct: Human recombinant full-length kinases were incubated in kinase buffer
Procedure: as §1

[25] = biological target: T25, AKT-1 (Homo sapiens, UniProt P31749); conditions: Table 2
T25 construct: Human recombinant full-length kinases were incubated in kinase buffer
T25 sequence (P31749 whole entry): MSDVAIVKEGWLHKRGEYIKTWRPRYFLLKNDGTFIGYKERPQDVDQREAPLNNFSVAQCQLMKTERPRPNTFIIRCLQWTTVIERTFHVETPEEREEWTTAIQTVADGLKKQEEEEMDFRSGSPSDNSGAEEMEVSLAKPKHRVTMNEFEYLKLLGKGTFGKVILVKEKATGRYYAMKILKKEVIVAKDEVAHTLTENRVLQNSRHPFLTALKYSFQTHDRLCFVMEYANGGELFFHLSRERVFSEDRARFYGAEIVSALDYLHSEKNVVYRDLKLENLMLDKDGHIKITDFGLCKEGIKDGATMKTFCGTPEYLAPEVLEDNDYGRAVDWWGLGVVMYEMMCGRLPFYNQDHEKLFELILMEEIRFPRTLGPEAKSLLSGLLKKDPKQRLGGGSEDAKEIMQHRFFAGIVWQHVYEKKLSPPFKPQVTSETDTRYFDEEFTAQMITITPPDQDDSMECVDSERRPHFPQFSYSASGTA
Procedure: as §1

[26] = biological target: T26, ABL1 (Homo sapiens, UniProt P00519)
T26 construct: Human recombinant full-length kinases were incubated in kinase buffer
Procedure: as §1

[27] = biological target: T27, HER2 (Homo sapiens, UniProt P04626)
T27 construct: Human recombinant full-length kinases were incubated in kinase buffer
Procedure: as §1

[28] = biological target: T28, PIM1 (Homo sapiens, UniProt P11309)
T28 construct: Human recombinant full-length kinases were incubated in kinase buffer
Procedure: as §1

[29] = biological target: T29, PLK4 (Homo sapiens, UniProt O00444)
T29 construct: Human recombinant full-length kinases were incubated in kinase buffer
Procedure: as §1

[30] = biological target: T30, FGFR1 (Homo sapiens, UniProt P11362)
T30 construct: Human recombinant full-length kinases were incubated in kinase buffer
Procedure: as §1

[31] = biological target: T31, FAK (Homo sapiens, UniProt Q05397); conditions: 1 μM; Table 2; read-out: % Inhibition FAK
T31 construct: Human recombinant full-length kinases were incubated in kinase buffer
Procedure: as §1

[32] = biological target: T32, RPS6KA4 (Homo sapiens, UniProt O75676)
T32 construct: Human recombinant full-length kinases were incubated in kinase buffer
Procedure: as §1

inhibition at 1 µM [1]: 0%
inhibition at 1 µM [2]: 0%
inhibition at 1 µM [3]: 0%
inhibition at 1 µM [4]: 0%
inhibition at 1 µM [5]: 0%
inhibition at 1 µM [6]: 0%
inhibition at 1 µM [7]: 0%
inhibition at 1 µM [8]: 0%
inhibition at 1 µM [9]: 25%
inhibition at 1 µM [10]: 0%
inhibition at 1 µM [11]: 0%
inhibition at 1 µM [12]: 0%
inhibition at 1 µM [13]: 0%
inhibition at 1 µM [14]: 0%
inhibition at 1 µM [15]: 0%
inhibition at 1 µM [16]: 0%
inhibition at 1 µM [17]: 0%
inhibition at 1 µM [18]: 0%
inhibition at 1 µM [19]: 0%
inhibition at 1 µM [20]: 0%
inhibition at 1 µM [21]: 0%
inhibition at 1 µM [22]: 0%
inhibition at 1 µM [23]: 0%
inhibition at 1 µM [24]: 0%
inhibition at 1 µM [25]: 22%
inhibition at 1 µM [26]: 0%
inhibition at 1 µM [27]: 0%
inhibition at 1 µM [28]: 0%
inhibition at 1 µM [29]: 0%
inhibition at 1 µM [30]: 0%
inhibition at 1 µM [31]: 1%
inhibition at 1 µM [32]: 0%
SMILES: O=c1c2ccccc2[se]n1-c1ccccc1 [Ebselen, reference compound]

Source: US9085598B2, “Compounds targeting the cell invasion protein complex, their pharmaceutical compositions and methods of use thereof” (THE ROYAL INSTITUTE FOR THE ADVANCEMENT OF LEARNING/MCGILL …, priority 2011, dated 2015)
